Experiments:
[1] = test system: Ezh2f/f; PDGFB/H3K27M NSCs injected into the mouse pons; assay: Survival of mice injected in the pons with pre-treated Ezh2f/f; PDGFB/H3K27M NSCs (FIG. 3b); settings: 10^5 cells pre-treated with 4-OHT vs ethanol
Source text: Briefly, mice were anesthetized using isoflurane (1.5 L O2/minute and 2.5% isoflurane) and placed in a stereotactic device (David Kopf instruments). […] The hole in the skull was closed with bonewax (Agnthos) and the scalp was closed using clips (Agnthos). The clips were removed after one week of injection.
PDGFB/H3K27M NSCs in mice with Ezh2^f/f; CreER (Ezh2^f/f;PDGFB/H3K27M) background were generated. In these mice Ezh2 could be conditionally deleted.

[2] = test system: Ezh2 expression in Ezh2f/f; PDGFB/H3K27M NSCs; assay: Immunoblot of Ezh2 after 4-OHT treatment of Ezh2f/f; PDGFB/H3K27M NSCs (FIG. 3a); type: cell-based, mouse; settings: CreER PDGFB/H3K27M NSCs, 8 days of treatment (FIG. 3a)
Experimental: Cells were trypsinized, washed once with 1× phosphate buffer saline (PBS) and lysed in TOPEX+ buffer (300 mM NaCl, 50 mM Tris-HCl pH7.5, 0.5% Triton X-100, 1% SDS, 1 mM DTT, Aprotinin, Leupeptin, 0.1 mM phenylmethanesulfonyl fluoride (PMSF) and 33.33 U/mL Benzonase (EMD-Novagen)). Protein concentrations in the cell lysates were measured by Bradford reagent (Bio-Rad). Cell lysates were separated by SDS-PAGE and transferred to nitrocellulose membrane. The antibodies used for the immunoblotting were antibodies specifically recognising H3K27me3 (C36B11, Cell Signaling), H3K27me2, p16^Ink4a, p53, H3K27M, actin, H3 and Ezh2.

[3] = test system: Ink4a−/−/Arf−/− NSCs expressing constitutive active epidermal growth factor receptor (*EGFR); assay: Cell proliferation of adult GBM model cells (FIG. 4); type: cell-based, mouse; settings: inhibitor vs DMSO
Source text: Cell proliferation of DMSO or EZH2 inhibitor treated Ink4a/Arf−/−*EGFR NSCs.
A mouse model representing adult classical subtype of GBM subtypes was investigated.

[4] = test system: PDGFB NSCs expressing either WT or K27M mutant H3.3; settings: 3 μM inhibitor vs DMSO
Source text: Cells were harvested and counted using Neubauer chamber every 3-4 days.

[5] = test system: PDGFB NSCs expressing either WT or K27M mutant H3.3; assay: Colony formation assay of PDGFB NSCs (FIG. 2C); type: cell-based, mouse; settings: 2000 cells plated, colonies after 9 days
[6] = test system: Ezh2f/f; PDGFB/H3K27M NSCs injected into the mouse pons; assay: Survival of mice bearing Ezh2f/f; PDGFB/H3K27M NSC tumours treated in vivo (FIG. 3c); settings: 10^4 cells injected into the pons, treatment after 3 weeks, vs oil-treated control
[7] = target: T1, Human PRC2 complex (EZH2, EED, SUZ12, RbAp48, AEBP2) (Homo sapiens, UniProt Q15910); assay: EZH2 methyltransferase activity within PRC2 complex, scintillation proximity assay (Example 2); type: biochemical; settings: determined as described in Example 2; inhibition of methyltransferase activity of EZH2 within PRC2
T1 construct: FLAG (N); made in house; host or cells: Sf9 insect cells
Experimental: Compounds can be evaluated for their ability to inhibit the methyltransferase activity of EZH2 within the PRC2 complex using the following assay. Human PRC2 complex is prepared by co-expressing each of the 5 member proteins (EZH2, EED, SUZ12, RbAp48, AEBP2) in Sf9 cells followed by co-purification. The proteins may be expressed as tagged versions, e.g. EZH2 may be expressed as FLAG-EZH2. The tag can be used for purification.
Enzyme activity is measured in a scintillation proximity assay (SPA) where a tritiated methyl group is transferred from 3H-SAM to a lysine residue on Histone H3 of a mononucleosome, purified from HeLa cells. Mononucleosomes are captured on SPA beads and the resulting signal is read on a ViewLux plate reader. SPA beads are e.g. available from Perkin Elmer, United States. This may be done as described in Garapaty-Rao et al, 2013 Identification of EZH2 and EZH1 small molecule inhibitors with selective impact on diffuse large B cell lymphoma cell growth. Chemistry and Biology 20, 1329-1339.
1. […]
1. Read the assay plates on the Viewlux Plate Reader utilizing the 613 nm emission filter with a 300 s read time. […]
Percent inhibition is calculated relative to the DMSO control for each compound concentration and the resulting values are fit using standard IC50 fitting parameters within the ABASE data fitting software package.

EZH2 = settings: PDGFB NSCs, different concentrations for 3 days, FIG. 2A

T1 sequence (Q15910 whole entry): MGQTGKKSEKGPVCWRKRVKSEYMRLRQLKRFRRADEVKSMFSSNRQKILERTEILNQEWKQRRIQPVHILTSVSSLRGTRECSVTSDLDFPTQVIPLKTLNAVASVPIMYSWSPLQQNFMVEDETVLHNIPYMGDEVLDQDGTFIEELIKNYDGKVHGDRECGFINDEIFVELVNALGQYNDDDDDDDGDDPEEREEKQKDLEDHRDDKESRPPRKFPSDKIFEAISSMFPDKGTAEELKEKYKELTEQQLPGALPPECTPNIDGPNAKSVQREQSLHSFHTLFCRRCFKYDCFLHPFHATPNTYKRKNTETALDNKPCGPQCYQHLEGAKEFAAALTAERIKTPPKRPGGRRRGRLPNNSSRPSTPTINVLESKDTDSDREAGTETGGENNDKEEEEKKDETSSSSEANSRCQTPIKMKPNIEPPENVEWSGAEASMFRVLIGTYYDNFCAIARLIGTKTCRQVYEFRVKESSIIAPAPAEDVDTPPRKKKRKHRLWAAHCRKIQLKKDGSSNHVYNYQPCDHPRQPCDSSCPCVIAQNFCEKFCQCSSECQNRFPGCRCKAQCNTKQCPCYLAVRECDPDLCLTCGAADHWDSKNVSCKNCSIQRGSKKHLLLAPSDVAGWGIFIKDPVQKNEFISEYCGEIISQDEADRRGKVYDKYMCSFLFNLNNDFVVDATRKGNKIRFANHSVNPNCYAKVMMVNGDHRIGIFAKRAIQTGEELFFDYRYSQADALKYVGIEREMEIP
T1 sequence (O75530 whole entry partner): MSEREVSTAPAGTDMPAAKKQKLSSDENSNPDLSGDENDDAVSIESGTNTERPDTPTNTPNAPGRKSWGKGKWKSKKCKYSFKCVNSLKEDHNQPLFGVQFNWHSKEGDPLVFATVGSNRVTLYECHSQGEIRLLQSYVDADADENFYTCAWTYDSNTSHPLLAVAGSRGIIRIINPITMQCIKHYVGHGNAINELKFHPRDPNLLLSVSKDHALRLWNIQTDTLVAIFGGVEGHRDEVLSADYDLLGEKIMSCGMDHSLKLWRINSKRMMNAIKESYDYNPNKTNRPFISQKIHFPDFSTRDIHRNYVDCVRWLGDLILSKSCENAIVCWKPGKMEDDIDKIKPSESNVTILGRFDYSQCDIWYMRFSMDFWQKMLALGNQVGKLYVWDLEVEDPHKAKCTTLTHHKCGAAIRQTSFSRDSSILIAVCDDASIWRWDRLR
T1 sequence (Q15022 whole entry partner): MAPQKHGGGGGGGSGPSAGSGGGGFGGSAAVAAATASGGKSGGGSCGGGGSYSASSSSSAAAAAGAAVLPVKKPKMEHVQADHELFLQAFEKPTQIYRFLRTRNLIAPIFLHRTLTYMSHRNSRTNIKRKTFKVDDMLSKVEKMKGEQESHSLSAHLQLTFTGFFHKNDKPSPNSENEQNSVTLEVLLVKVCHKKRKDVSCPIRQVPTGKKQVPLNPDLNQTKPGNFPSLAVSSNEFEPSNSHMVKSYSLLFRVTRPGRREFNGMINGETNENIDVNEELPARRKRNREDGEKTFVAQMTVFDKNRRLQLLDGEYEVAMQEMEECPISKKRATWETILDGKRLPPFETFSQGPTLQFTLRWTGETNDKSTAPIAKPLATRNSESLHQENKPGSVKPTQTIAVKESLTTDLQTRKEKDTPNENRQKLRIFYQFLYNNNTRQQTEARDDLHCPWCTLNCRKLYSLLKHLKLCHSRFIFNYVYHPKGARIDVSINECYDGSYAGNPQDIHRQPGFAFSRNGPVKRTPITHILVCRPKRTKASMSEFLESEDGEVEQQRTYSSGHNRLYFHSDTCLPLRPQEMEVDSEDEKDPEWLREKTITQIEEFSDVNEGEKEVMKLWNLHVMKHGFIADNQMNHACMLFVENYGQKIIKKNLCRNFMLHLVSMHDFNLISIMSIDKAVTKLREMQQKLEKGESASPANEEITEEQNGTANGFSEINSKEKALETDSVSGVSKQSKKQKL
T1 sequence (Q09028 whole entry partner): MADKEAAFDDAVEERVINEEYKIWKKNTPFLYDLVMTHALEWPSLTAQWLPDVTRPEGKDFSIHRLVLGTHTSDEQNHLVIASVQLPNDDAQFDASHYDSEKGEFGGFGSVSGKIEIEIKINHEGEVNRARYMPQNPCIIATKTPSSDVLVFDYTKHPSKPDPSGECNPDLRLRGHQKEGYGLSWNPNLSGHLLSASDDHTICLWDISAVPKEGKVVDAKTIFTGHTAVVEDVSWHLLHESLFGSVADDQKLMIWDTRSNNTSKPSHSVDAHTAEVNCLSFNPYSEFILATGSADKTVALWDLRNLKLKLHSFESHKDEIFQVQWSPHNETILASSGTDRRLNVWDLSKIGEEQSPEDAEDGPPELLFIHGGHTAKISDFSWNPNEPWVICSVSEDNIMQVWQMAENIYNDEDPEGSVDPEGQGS
T1 sequence (Q6ZN18 1-503 partner limits assumed): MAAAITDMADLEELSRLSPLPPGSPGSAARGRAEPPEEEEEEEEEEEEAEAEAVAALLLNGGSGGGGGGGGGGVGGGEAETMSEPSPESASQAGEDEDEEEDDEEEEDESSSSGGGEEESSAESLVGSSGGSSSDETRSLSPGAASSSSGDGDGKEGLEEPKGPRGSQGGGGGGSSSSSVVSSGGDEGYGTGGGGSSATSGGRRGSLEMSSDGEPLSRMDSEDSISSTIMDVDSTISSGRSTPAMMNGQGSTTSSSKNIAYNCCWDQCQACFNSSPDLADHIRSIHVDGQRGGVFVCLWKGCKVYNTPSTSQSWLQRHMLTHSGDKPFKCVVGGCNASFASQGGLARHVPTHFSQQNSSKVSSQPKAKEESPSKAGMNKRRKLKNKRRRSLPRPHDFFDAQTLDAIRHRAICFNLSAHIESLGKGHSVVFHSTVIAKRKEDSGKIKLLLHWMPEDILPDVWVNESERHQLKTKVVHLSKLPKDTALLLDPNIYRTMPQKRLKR

Molecule	proliferation [3]	proliferation [4]	colonies formed [5]	further results
4-hydroxytamoxifen [4-OHT]	–	–	–	survival of mice [1]: significantly longer survival; Ezh2 expression [2]: complete loss of Ezh2
CCN(c1cc(-c2ccc(CN3CCOCC3)cc2)cc(C(=O)NCc2c(C)cc(C)[nH]c2=O)c1C)C1CCOCC1 [EPZ6438]	did not affect their proliferation	reduced proliferation	formed fewer colonies	–
CC/C(=C(\c1ccccc1)c1ccc(OCCN(C)C)cc1)c1ccccc1 [Tamoxifen, tamoxifen]	–	–	–	survival of mice [6]: significantly longer survival
GSK343	did not affect their proliferation	reduced proliferation	formed fewer colonies	IC50 [7]: 5 nM; EZH2 inhibition (H3K27me3 and H3K27me2 levels by immunoblot) (EZH2): potent and highly selective EZH2 inhibitors

From patent US20180271857A1, “TREATMENT OF CANCER BY INHIBITING EZH2 ACTIVITY” (University of Copenhagen, priority 2014, published 2018)
